In general, pIC50 refers to −log10 of the IC50, conventionally taken in molar units. As usually defined, the chromatographic logD is a lipophilicity value derived from retention on a column. A higher chromatographic logD goes with a more lipophilic compound. Broadly, the IC50 is the point on the concentration scale where inhibition reaches its midpoint. The Vd is the apparent volume that relates the amount in the body to the concentration in plasma or blood. A higher Vd goes with extensive tissue distribution. A word on the EC50: it is the concentration at which the effect is half-maximal. As a reminder, the pKd is the Kd on a negative log10 scale, so that one unit is a factor of ten. A lower pKd goes with a large Kd. What is called clearance is a measure of how efficiently the substance is removed, as volume per time. Higher therefore signals a high capacity for elimination.

Series [1] is described as follows: Corrector activity of Z variant alpha1-antitrypsin misfolding (unknown origin) expressed in CHO cells assessed as inhibition of Z variant alpha1-antitrypsin polymerisation. It counts as cell-based, Homo sapiens.
Series [2] in a line: Corrector activity of Z variant alpha1-antitrypsin misfolding (unknown origin) assessed as inhibition of Z variant alpha1-antitrypsin polymerisation by TR-FRET assay. The arrangement: species or system Homo sapiens. (In general: In TR-FRET formats the signal depends on donor and acceptor labels being close together.)
Series [3] can be described thus: Lipophilicity, log D of compound by chromatographic method. Type of series: physicochemical.
The nature of series [4]: Kinetic solubility of compound. To be noted: read-out: Kinetic_solubility. It counts as physicochemical.
Series [5] can be described thus: Metabolic stability in human hepatocytes assessed as intrinsic clearance measured per gm of tissue. It counts as ADME, cell-based, Hepatocyte.
The nature of series [6]: Volume of distribution in Wistar Han rat at 1 mg/kg, iv. It counts as ADME, organism-based. As to conditions: in vivo.
The nature of series [7]: Corrector activity of Z variant alpha1-antitrypsin misfolding (unknown origin) expressed in CHO cells assessed as inhibition of Z variant alpha1-antitrypsin polymerisation by measuring increase in Z alpha1 antitrypsin secretion. Type of series: cell-based.
Series [8] in a line: Binding affinity to Z variant alpha1-antitrypsin (unknown origin) by competition binding assay. The arrangement: species or system Homo sapiens.
The nature of series [9]: Protein binding in rat plasma. Type of series: ADME, cell-free. As to conditions: read-out: PPB (converted).
Series [10] deals with Albumin (Homo sapiens, UniProt P02768). Briefly: Binding affinity to human serum albumin. Type of series: ADME. To be noted: isolated protein.
Chain of Albumin (P02768 whole entry): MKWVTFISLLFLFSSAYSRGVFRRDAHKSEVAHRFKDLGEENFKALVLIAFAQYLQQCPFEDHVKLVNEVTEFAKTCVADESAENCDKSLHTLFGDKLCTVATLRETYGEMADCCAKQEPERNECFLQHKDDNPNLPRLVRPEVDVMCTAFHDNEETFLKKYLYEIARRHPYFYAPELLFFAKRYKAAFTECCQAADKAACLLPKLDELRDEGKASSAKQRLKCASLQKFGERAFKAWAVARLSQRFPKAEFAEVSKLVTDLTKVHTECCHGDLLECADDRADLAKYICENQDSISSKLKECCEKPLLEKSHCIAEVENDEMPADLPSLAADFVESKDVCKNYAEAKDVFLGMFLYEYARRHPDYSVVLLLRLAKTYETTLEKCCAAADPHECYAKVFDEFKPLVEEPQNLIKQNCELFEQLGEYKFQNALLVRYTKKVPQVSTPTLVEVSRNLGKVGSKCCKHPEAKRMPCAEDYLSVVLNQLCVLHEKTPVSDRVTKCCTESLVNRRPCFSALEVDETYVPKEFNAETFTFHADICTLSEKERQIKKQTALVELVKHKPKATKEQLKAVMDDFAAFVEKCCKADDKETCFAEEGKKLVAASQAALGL
Series [11] in a line: Protein binding in human blood. It counts as ADME, tissue-based. To be noted: read-out: PB.
A short description of series [12]: Elimination half life in Wistar Han rat at 1 mg/kg, iv. It counts as ADME, organism-based. As to conditions: in vivo, read-out: beta t1/2 (converted).
A short description of series [13]: Protein binding in human plasma. Type of series: ADME, cell-free. To be noted: read-out: PPB.
Series [14] can be described thus: Clearance in Wistar Han rat blood at 1 mg/kg, iv. Type of series: ADME, organism-based.
Series [15] is described as follows: Clearance in rat hepatocytes measured per gm of tissue. It counts as ADME, cell-based, Hepatocyte.

≈ marks a conversion by molar mass, not a printed value.

Take `CCC[C@@H](NC(=O)c1ccc2oc(=O)[nH]c2c1)[C@@H](O)c1ccccc1C`: the pIC50 in series [1] was found to be 4.3; in [2] it was 6.9. The chromatographic logD in series [3] came out at 3.9. Moreover, in series [4], the solubility kinetic was ≥ 420 µM.

In the case of `CCC[C@@H](NC(=O)c1cccc2c1NC(=O)C2)[C@@H](O)c1cccc(Cl)c1C`, the pIC50 in series [1] stood at 6.3; in series [2], 8.6. Further, the chromatographic logD in series [3] was determined as 5.2. Further, the CLH in series [5] was determined as 3.7 mL/min/g. The solubility kinetic in series [4] worked out at 128 µM (≈ 49.5 µg/mL).

In the case of `CCC[C@@H](NC(=O)c1cccc2c1CC(=O)N2)[C@@H](O)c1ncccc1C`, the pIC50 in [1] is listed as 4.4; in series [2], 6.6. Moreover, the chromatographic logD in [3] turned out to be 3.2. Further, the solubility kinetic in series [4] was ≥ 392 µM.

As for `CCC[C@@H](NC(=O)c1cccc2c1CC(=O)N2)[C@@H](O)c1ccccc1C`, the pIC50 in [1] is reported as 5.6; in [2], 8.3. In series [3], this compound returned a chromatographic logD of 3.4. In addition, in series [5], the CLH was determined as 0.3 mL/min/g. The solubility kinetic in [4] was ≥ 395 µM.

Regarding `CCC[C@@H](NC(=O)c1cccc2c1CC(=O)N2)[C@@H](O)c1ccccc1CC`, the figures for the pIC50 in series [1] and in series [2] were 6 and 8.3, respectively. For the same compound, in series [3], the chromatographic logD was found to be 4.1. In addition, the CLH in series [5] stood at 1.6 mL/min/g. Moreover, the solubility kinetic in series [4] is ≥ 316 µM.

For `CCC[C@@H](NC(=O)c1cccc2c1CC(=O)N2)[C@@H](O)c1cc(Cl)ccc1C`, the pIC50 is reported as 5.3 in series [1] and 8.6 in series [2]. In series [3], this compound had a chromatographic logD of 4.3. Also, the solubility kinetic in series [4] is ≥ 408 µM.

As to `CCC[C@@H](NC(=O)c1ccnc2[nH]c(=O)[nH]c12)[C@@H](O)c1cccc(Cl)c1C`, the results for the pIC50 in series [1] and in series [2] were 5.5 and 8, respectively. Also, in series [3], the chromatographic logD came out at 3.9. Moreover, the solubility kinetic in [4] was 200 µM (≈ 77.8 µg/mL).

Take `CCC[C@@H](NC(=O)c1cccc2oc(=O)[nH]c12)[C@@H](O)c1cccc(Cl)c1C`: the pIC50 in series [1] stood at 5.1; in series [2], 8.2. The chromatographic logD in [3] is 5.2. The solubility kinetic in series [4] came to 233 µM (≈ 90.6 µg/mL).

Take `CCC[C@@H](NC(=O)c1cccc2c1CC(=O)N2)[C@@H](O)c1cccc(Cl)c1`: the pIC50 in [1] came to 6; in series [2], 8.4. In series [3], the chromatographic logD was 3.7. Also, the solubility kinetic in series [4] was found to be 52 µM (≈ 19.4 µg/mL).

`CCC[C@@H](NC(=O)c1cccc2[nH]c(=O)ccc12)[C@@H](O)c1cccc(Cl)c1C`: the pIC50 worked out at 4.8 in series [1] and 7.7 in [2]. Moreover, the chromatographic logD in series [3] came to 3.7. Further, the solubility kinetic in series [4] stood at 309 µM (≈ 123 µg/mL).

For the compound `CCC[C@@H](NC(=O)c1cccc2c1CC(=O)N2)[C@@H](O)c1cccc(F)c1Cl`, the pIC50 in series [1] was 6.2; in [2] it was 8.2. This compound also yielded a chromatographic logD in series [3] of 3.7. Further, in series [5], the CLH was < 0.4 mL/min/g. Further, the solubility kinetic in series [4] is ≥ 504 µM.

Turning to `CCC[C@@H](NC(=O)c1ccc2oc(=O)[nH]c2c1)[C@@H](O)c1ccccc1`, the pIC50 in series [1] was < 4; in series [2] it was 6.3. Further, in [3], the chromatographic logD was found to be 3.2. Moreover, the solubility kinetic in [4] stood at 299 µM (≈ 102 µg/mL).

On to `CCC[C@H](NC(=O)c1ccc2cc[nH]c2c1)[C@@H](O)c1ccccc1`, for which, in [2], the pIC50 amounted to 4.1.

For `CCC[C@@H](NC(=O)c1ccc2cc[nH]c2c1)[C@H](O)c1ccccc1`, the pIC50 in [2] worked out at 5.5.

For `CCC[C@@H](NC(=O)c1ccc2cc[nH]c2c1)[C@@H](O)c1ccccc1`, the pIC50 was found to be 4.5 in series [1] and 6.5 in series [2]. Also, in series [3], the chromatographic logD is 4.3. In addition, the solubility kinetic in [4] is ≥ 439 µM.

With `CCC[C@@H](NC(=O)c1ccnc2c1CC(=O)N2)[C@@H](O)c1cccc(Cl)c1C`, the pIC50 in series [1] is on record as 5.9; in [2] it was 8.1. Moreover, the chromatographic logD in series [3] worked out at 3.9. In series [5], the CLH is 0.9 mL/min/g. The solubility kinetic in series [4] was ≥ 314 µM.

With `CCC[C@@H](NC(=O)c1cccc2c1CC(=O)N2)[C@@H](O)c1ccccc1OC`, the values for the pIC50 in series [1] and in series [2] were 5.1 and 7.8, respectively. Moreover, the chromatographic logD in series [3] worked out at 3.4. Further, in [5], the CLH is < 0.8 mL/min/g. Besides, the solubility kinetic in [4] is ≥ 299 µM.

With `CCC[C@@H](NC(=O)c1cccc2c1CC(=O)N2)[C@@H](O)c1cccc(C)c1`, the values for the pIC50 in [1] and in series [2] were 5.7 and 8.1, respectively. The same compound had a chromatographic logD in series [3] of 3.6. Moreover, in series [4], the solubility kinetic came to 19 µM (≈ 6.7 µg/mL).

For `CCCC(NC(=O)c1ccc2cc[nH]c2c1)C(O)c1ccccc1` (stereo unspecified), in series [2], the IC50 came out at 300 nM and the pIC50 is given as 6.5.

In the case of `CCC[C@@H](NC(=O)c1cccc2c1CC(=O)N2)[C@@H](O)c1ccncc1C`, the pIC50 in [1] was < 4; in [2] it was 6.5. The compound also gave a chromatographic logD in series [3] of 1.6. In addition, the solubility kinetic in [4] stood at 300 µM (≈ 106 µg/mL).

In turn, `CCC[C@@H](NC(=O)c1cccc2c1CC(=O)N2)[C@@H](O)c1cccc(F)c1C` gave a Vd in series [6] of 2.3 L/kg. Besides, in series [7], the EC50 was 631 nM. The pKd in [8] turned out to be 8.5. Moreover, the figures for the fraction unbound in [9], in series [11] and in [13] were 0.19, < 0.02 and < 0.02, respectively. The compound also returned an Activity in [10] of 84%. Also, the pIC50 in [1] stood at 6.3; in [2], 8.3. Further, the half-life in series [12] was 30 min. In series [3], this compound displayed a chromatographic logD of 3.8. In [14], the clearance turned out to be 69 mL/min/kg. Further, the CLH in [5] came to 0.3 mL/min/g; in [15], 7.4 mL/min/g. Moreover, the solubility kinetic in series [4] is ≥ 528 µM.

In the case of `CCC[C@@H](NC(=O)c1cccc2[nH]c(=O)[nH]c12)[C@@H](O)c1cccc(Cl)c1C`, the values for the negative logarithm of the IC50 (pIC50) in [1] and in series [2] were 6.5 and 8.5, respectively. This compound also returned a chromatographic logD in [3] of 4.4. In addition, in [5], the CLH turned out to be 1.8 mL/min/g. Moreover, the solubility kinetic in series [4] turned out to be 307 µM (≈ 119 µg/mL).

For `CCC[C@@H](NC(=O)c1cccc2c1CC(=O)N2)[C@@H](O)c1ccccc1Cl`, the pIC50 came to 5.7 in series [1] and 8.1 in [2]. The chromatographic logD in series [3] stood at 3.6. In [5], the CLH turned out to be 0.4 mL/min/g. Also, in [4], the solubility kinetic was ≥ 356 µM.

For `CCC[C@@H](NC(=O)c1cccc2c1CC(=O)N2)[C@@H](O)c1cnccc1C`, the pIC50 is listed as < 4 in series [1] and 5.9 in series [2]. This compound had a chromatographic logD in series [3] of 1.9. Further, the solubility kinetic in series [4] is ≥ 346 µM.

As for `CCC[C@@H](NC(=O)c1cncc2[nH]c(=O)[nH]c12)[C@@H](O)c1cccc(Cl)c1C`, the negative logarithm of the IC50 (pIC50) in [1] is 4.2; in [2] it was 7.4. The chromatographic logD in series [3] is 3.4. Also, in series [4], the solubility kinetic was ≥ 227 µM.

As for `CCC[C@@H](NC(=O)c1cccc2[nH]c(=O)oc12)[C@@H](O)c1cccc(Cl)c1C`, the pIC50 in series [1] came to 5.4; in series [2] it was 8. The same compound returned a chromatographic logD in series [3] of 5.1. Further, the solubility kinetic in series [4] was found to be 326 µM (≈ 127 µg/mL).

Regarding `CCC[C@@H](NC(=O)c1cccc2c1CC(=O)N2)[C@@H](O)c1ccccc1C(F)(F)F`, the results for the pIC50 in series [1] and in series [2] were 4.9 and 7.3, respectively. The compound also displayed a chromatographic logD in [3] of 3.7. For the same compound, the CLH in [5] amounted to 0.2 mL/min/g. Also, the solubility kinetic in [4] was ≥ 420 µM.

On to `CCC[C@H](NC(=O)c1ccc2cc[nH]c2c1)[C@H](O)c1ccccc1`, for which the pIC50 in series [2] is < 4.

Take `CCC[C@@H](NC(=O)c1cccc2c1CC(=O)N2)[C@@H](O)c1cccc(Cl)c1C`: the results for the pIC50 in series [1] and in series [2] were 6.7 and 8.6, respectively. In addition, the chromatographic logD in series [3] stood at 4.3. In addition, in series [5], the CLH stood at 0.4 mL/min/g. Moreover, the solubility kinetic in series [4] was ≥ 450 µM.

Source of the values: ChEMBL document CHEMBL4814010 (Bioorg Med Chem Lett, 2021).
